Data as given in ChEMBL document CHEMBL3596193, “Pradimicin A, a D-mannose-binding antibiotic, binds pyranosides of L-fucose and L-galactose in a calcium-sensitive manner” (Bioorg Med Chem Lett, 2015).

Assays:
[1] = Binding affinity to D-Glucose assessed as molar ratio of sugar to compound in aggregate at pH 4.5 by co-precipitation method in presence of Ca2+
[2] = Binding affinity to D-Mannose assessed as molar ratio of sugar to compound in aggregate at 2 umol at pH 6 by 1H NMR analysis in presence of 20 umol CaCl2
[3] = Binding affinity to alpha-D-Mannose-OMe assessed as molar ratio of sugar to compound in aggregate at 2 umol at pH 6 by 1H NMR analysis in presence of 20 umol CaCl2
[4] = Binding affinity to beta-D-Mannose-OMe assessed as molar ratio of sugar to compound in aggregate at 2 umol at pH 6 by 1H NMR analysis in presence of 20 umol CaCl2
[5] = Binding affinity to D-Arabinose assessed as molar ratio of sugar to compound in aggregate at 2 umol at pH 6 by 1H NMR analysis in presence of 20 umol CaCl2
[6] = Binding affinity to D-Glucose assessed as molar ratio of sugar to compound in aggregate at 2 umol at pH 6 by 1H NMR analysis in presence of 20 umol CaCl2
[7] = Binding affinity to alpha-D-Glucose-OMe assessed as molar ratio of sugar to compound in aggregate at 2 umol at pH 6 by 1H NMR analysis in presence of 20 umol CaCl2
[8] = Binding affinity to L-[…] assessed as molar ratio of sugar to compound in aggregate at 2 umol at pH 6 by 1H NMR analysis in presence of 20 umol CaCl2
[9] = Binding affinity to alpha-L-[…]-OMe assessed as molar ratio of sugar to compound in aggregate at 2 umol at pH 6 by 1H NMR analysis in presence of 20 umol CaCl2
[10] = Binding affinity to beta-L-[…]-OMe assessed as molar ratio of sugar to compound in aggregate at 2 umol at pH 6 by 1H NMR analysis in presence of 20 umol CaCl2
[11] = Binding affinity to L-Galactose assessed as molar ratio of sugar to compound in aggregate at 2 umol at pH 6 by 1H NMR analysis in presence of 20 umol CaCl2
[12] = Binding affinity to alpha-L-Galactose-OMe assessed as molar ratio of sugar to compound in aggregate at 2 umol at pH 6 by 1H NMR analysis in presence of 20 umol CaCl2
[13] = Binding affinity to beta-L-Galactose-OMe assessed as molar ratio of sugar to compound in aggregate at 2 umol at pH 6 by 1H NMR analysis in presence of 20 umol CaCl2
[14] = Binding affinity to D-Mannose assessed as molar ratio of sugar to compound in aggregate at 2 umol at pH 6 incubated at 60 degC for 15 mins, room temperature for 1 hr, and 4 degC for 1 hr by co-precipitation method in presence of 100 umol CaCl2
[15] = Binding affinity to alpha-D-Mannose-OMe assessed as molar ratio of sugar to compound in aggregate at 2 umol incubated at 60 degC for 15 mins, room temperature for 1 hr, and 4 degC for 1 hr by co-precipitation method in presence of 100 umol CaCl2
[16] = Binding affinity to beta-D-Mannose-OMe assessed as molar ratio of sugar to compound in aggregate at 2 umol incubated at 60 degC for 15 mins, room temperature for 1 hr, and 4 degC for 1 hr by co-precipitation method in presence of 100 umol CaCl2
[17] = Binding affinity to L-[…] assessed as molar ratio of sugar to compound in aggregate at 2 umol incubated at 60 degC for 15 mins, room temperature for 1 hr, and 4 degC for 1 hr by co-precipitation method in presence of 100 umol CaCl2
[18] = Binding affinity to alpha-L-[…]-OMe assessed as molar ratio of sugar to compound in aggregate at 2 umol incubated at 60 degC for 15 mins, room temperature for 1 hr, and 4 degC for 1 hr by co-precipitation method in presence of 100 umol CaCl2
[19] = Binding affinity to beta-L-[…]-OMe assessed as molar ratio of sugar to compound in aggregate at 2 umol incubated at 60 degC for 15 mins, room temperature for 1 hr, and 4 degC for 1 hr by co-precipitation method in presence of 100 umol CaCl2
[20] = Binding affinity to L-Galactose assessed as molar ratio of sugar to compound in aggregate at 2 umol incubated at 60 degC for 15 mins, room temperature for 1 hr, and 4 degC for 1 hr by co-precipitation method in presence of 100 umol CaCl2
[21] = Binding affinity to alpha-L-Galactose-OMe assessed as molar ratio of sugar to compound in aggregate at 2 umol incubated at 60 degC for 15 mins, room temperature for 1 hr, and 4 degC for 1 hr by co-precipitation method in presence of 100 umol CaCl2
[22] = Binding affinity to beta-L-Galactose-OMe assessed as molar ratio of sugar to compound in aggregate at 2 umol incubated at 60 degC for 15 mins, room temperature for 1 hr, and 4 degC for 1 hr by co-precipitation method in presence of 100 umol CaCl2
[23] = Binding affinity to Alpha-D-Mannose-OMe assessed as molar ratio of sugar to compound in aggregate at pH 4.5 by co-precipitation method in presence of Ca2+

Q: With `CN[C@@H]1[C@H](O[C@@H]2OC[C@@H](O)[C@H](O)[C@H]2O)[C@@H](O)[C@H](O[C@H]2c3cc(C)c(C(=O)N[C@H](C)C(=O)O)c(O)c3-c3c(cc4c(c3O)C(=O)c3cc(OC)cc(O)c3C4=O)[C@@H]2O)O[C@@H]1C` as the compound, how does the Activity [1] read?
A: Its Activity is 0.57 molar ratio.

Q: What about the Activity [2] of the same compound?
A: Its Activity is 1.07 molar ratio.

Q: What about the Activity [3] of the same compound?
A: The Activity was 1.13 molar ratio.

Q: What about the Activity [4] of the same compound?
A: Its Activity is 1.15 molar ratio.

Q: And the Activity [5]?
A: Its Activity is 1.14 molar ratio.

Q: What about the Activity [6] of the same compound?
A: Its Activity is less than 0.1 molar ratio.

Q: What about the Activity [7] of the same compound?
A: The Activity was less than 0.1 molar ratio.

Q: What about the Activity [8] of the same compound?
A: The Activity was less than 0.1 molar ratio.

Q: And the Activity [9]?
A: Its Activity is 0.28 molar ratio.

Q: And the Activity [10]?
A: The Activity was 0.52 molar ratio.

Q: What about the Activity [11] of the same compound?
A: Its Activity is less than 0.1 molar ratio.

Q: And the Activity [12]?
A: The Activity was 0.32 molar ratio.

Q: What about the Activity [13] of the same compound?
A: The Activity was 0.6 molar ratio.

Q: And the Activity [14]?
A: The Activity was 1.08 molar ratio.

Q: And the Activity [15]?
A: The Activity was 1.11 molar ratio.

Q: What about the Activity [16] of the same compound?
A: The Activity was 1.08 molar ratio.

Q: And the Activity [17]?
A: Its Activity is less than 0.1 molar ratio.

Q: What about the Activity [18] of the same compound?
A: Its Activity is less than 0.1 molar ratio.

Q: And the Activity [19]?
A: The Activity was less than 0.1 molar ratio.

Q: What about the Activity [20] of the same compound?
A: Its Activity is less than 0.1 molar ratio.

Q: And the Activity [21]?
A: Its Activity is less than 0.1 molar ratio.

Q: What about the Activity [22] of the same compound?
A: Its Activity is less than 0.1 molar ratio.

Q: What about the Activity [23] of the same compound?
A: Its Activity is 1.08 molar ratio.
